Data: patent US20130303479A1, “Antiretroviral Cyclonucleoside Compositions and Methods and Articles of Title of Invention Manufacture Therewith” (priority 2011, published 2013)
“Also recorded” adds a separate entry of the source.

Key:
[1] = test system: vsv-g pseudotyped HIV-1 virus; format: cell-based
[2] = test system: HIV; assay: Inhibition of HIV replication in experimental T cell cancer lines; format: cell-based
[3] = test system: HIV-1 (wt); assay: Inhibition of HIV replication in primary peripheral blood mononuclear cells (p24 ELISA); format: cell-based; details: Human immunodeficiency virus 1, PBMC, read-out: EC50, inhibition of HIV replication
Method: Human peripheral blood mononuclear cells (PBMCs) purified from donors were cultured (RPMI+10% FBS) and stimulated pre-infection (24 hrs) and every 3 days for three weeks with 2 ng/ml of phytoheaemagglutinin (PHA) and 1 U/ml IL-2. 24 hours following the initial stimulation the samples were incubated for one hour with the indicated amounts of NSC166641 and then infected with 300 ng HIV-1 (wt). Samples were analyzed via ELISA p24. (See FIG. 7).

[4] = biological target: T1, reverse transcriptase (RT) (Human immunodeficiency virus type 1 group M subtype B, UniProt P03366); assay: Roche reverse transcriptase assay kit; format: biochemical; details: indicated amounts
T1 construct: Results of the Roche reverse transcriptase (AT) assay kit; purchased Roche
Method: Results of the Roche reverse transcriptase […] assay kit utilizing the indicated amounts of NSC166641. RT activity was measured as a percentage compared to the positive control. […] (See FIG. 9).

[5] = biological target: Human recombinant dCK (Homo sapiens, UniProt P27707); assay: dCK inhibition curve with deoxyinosine as substrate; format: biochemical; details: deoxyinosine (dIR) substrate, duplicate
Method: Inhibiting the activity of the dCK enzyme is useful. […] Human recombinant dCK activity was characterized using deoxyinosine (dIR) as a substrate. Assays were performed in duplicate in 200 μL of reaction mixture (96-well plate). Reactions were started by adding dIR at various concentrations and the percent inhibition was determined as compared to the positive control via spectrophotometer. […] (See FIG. 35).

[6] = test system: vsv-g pseudotyped HIV-1 virus; format: cell-based; remark: listed apart in the source
[7] = test system: HIV; assay: EC50 stated in embodiments, test not specified; format: cell-based
[8] = in vivo; cited from earlier work
[9] = test system: cells; details: cited from earlier work
[10] = test system: HIV-1 (wt) virus; format: cell-based
Method: G11 HIV reporter cells (200K) were seeded in 5 ml falcon tubes (RPMI+10% FBS) and incubated with the indicated amounts of NSC129220 (CAS 10212-28-9) for one hour before infection with HIV-1 (wt) virus (250 ng). Samples were stained with propidium iodide and analyzed for GFP expression via flow cytometer at 48 and 72 hours post infection. (See FIG. 2).
Example FACS dot plots of live G11 cells expressing HIV induced expression of GFP. […] (See FIG. 27).

Chain of Human recombinant dCK (P27707 whole entry): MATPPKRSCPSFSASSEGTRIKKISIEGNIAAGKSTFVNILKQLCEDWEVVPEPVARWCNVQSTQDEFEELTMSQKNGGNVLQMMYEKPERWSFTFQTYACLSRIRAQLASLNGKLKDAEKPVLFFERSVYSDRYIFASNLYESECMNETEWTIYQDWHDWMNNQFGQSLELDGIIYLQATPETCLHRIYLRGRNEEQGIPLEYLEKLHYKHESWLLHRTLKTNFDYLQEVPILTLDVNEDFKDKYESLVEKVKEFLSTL

N=c1nc2n(cc1F)[C@@H]1O[C@H](CO)[C@@H](O)[C@@H]1O2 [AAFC, 5-fluoro-2,2′cyclocytidine]
dose dependent effect on Clone 64 cells [1]: dose dependent effect
dose-dependent activity (luciferase) [1]: Dose-dependent activity was detected
lowest dose at which anti-HIV activity was seen [1]: 40 µM
EC50 ([2]; Human immunodeficiency virus 1, read-out: EC50, inhibition of HIV replication, experimental T cell cancer lines): < 0.5 µM
concentration directly inhibiting HIV replication in vitro ([2]; a number of experimental cell lines and primary cells): < 500 nM
inhibition of HIV replication on post infection treatment ([2]; post exposure of cells infected with HIV-1, experimental cell lines): dramatically inhibit HIV replication
EC50 [3]: < 0.0007 µM
inhibition of RT activity vs positive control [4]: little or no inhibition of RT
IC50 [5]: 32 µM
rescue of luciferase expression by dC, dT or both [6]: addition of dC but not dT may be able to rescue luciferase expression in treated cells
rescue of luciferase expression by deoxycytidine [6]: Addition of dC appears to be able to rescue luciferase expression in treated cells; also recorded: Addition of dC is able to rescue luciferase expression in treated cells
EC50 ([7]; Human immunodeficiency virus 1, another aspect of embodiments, read-out: EC50): ~0.01 µM
EC50 ([7]; Human immunodeficiency virus 1, one aspect of embodiments): ~0.0007 µM
fraction of reagent passed through the body unchanged [8]: over 80%
phosphorylation compared to Ara-C [8]: less easily phosphorylated as compared to Ara-C
reversal of cell growth inhibition by nucleosides [9]: reversed by deoxycytidine but not by thymidine and deoxyuridine
thymidine incorporation [9]: inhibited thymidine incorporation into the acid-soluble fraction (DNA) of the cells

Cc1cn([C@H]2C[C@H](N=[N+]=[N-])[C@@H](CO)O2)c(=O)[nH]c1=O [AZT, zidovudine]
dose dependent effect on Clone 64 cells [1]: dose dependent effect

O=C(O)c1ccccc1 [Benzoic acid]
anti-HIV activity in screen (luciferase expression) [1]: Activity was not detected

CC(=O)O.N=c1ccn2c(n1)OC1C(O)C(CO)OC12 (centres unmarked) [NSC129220, O2,2′-cyclocytidine monoacetate]
dose-dependent activity (luciferase) [1]: Dose-dependent activity was detected
lowest dose at which anti-HIV activity was seen [1]: 40 µM
cell viability ([10]; FACS GFP assay, treated reporter cells (FIG. 27)): > 60%
inhibition of HIV induced GFP expression (confirmation of screen) ([10]; live G11 cells, FACS dot plots): inhibition of HIV
rescue of luciferase expression by deoxycytidine [6]: Addition of dC is able to rescue luciferase expression in treated cells

Cl.N=c1ccn2c(n1)O[C@H]1[C@H](O)[C@@H](CO)O[C@H]12 [O2,2′-cyclocytidine hydrochloride]
lowest dose at which anti-HIV activity was seen [1]: 40 µM

O=C1CN=C(c2ccc[nH]2)c2cc(Cl)ccc2N1 [benzodiazipen, Benzodiazepen]
anti-HIV activity in screen (luciferase expression) [1]: Anti-HIV activity was detected

CCOC(N)=O [ethyl carbamate]
anti-HIV activity in screen (luciferase expression) [1]: Activity was not detected

COc1ccc2[nH]c3c(C)c4ccncc4c(C)c3c2c1 [methoxyellipticine, Methoxyellipticine]
anti-HIV activity in screen (luciferase expression) [1]: Anti-HIV activity was detected

c1ccc2ccccc2c1 [napthalen]
anti-HIV activity in screen (luciferase expression) [1]: Activity was not detected
